According to patent US20260297080A1, “BICYCLIC COMPOUNDS AS CDK INHIBITORS” (BeOne Medicines I GmbH, priority 2022, published 2026):

Legend:
[1] = biological target: CDK2/Cyclin E1 (Homo sapiens, UniProt P24941); test: CDK2/Cyclin E1 Biochemical Assay (TR-FRET), 1 mM ATP; conditions: 0.15 μM Rb (Ser780)-biotin substrate, pH7.0, 60 min preincubation, 90 min reaction, room temperature
Procedure: (§1) CDK2/Cyclin E1 and CDK1/Cyclin B1 Biochemical Assays
(§2) Compounds disclosed herein were tested for inhibition of CDK2/Cyclin E1 or CDK1/Cyclin B1 kinase in an assay based on the time-resolved fluorescence-resonance energy transfer (TR-FRET) methodology. The assay was carried out in 384-well low volume black plates in a reaction mixture containing CDK2/Cyclin E1 or CDK1/Cyclin B1, 1 mM ATP for CDK2/Cyclin E1 and CDK1/Cyclin B1, 0.15 μM Rb (Ser780)-biotin substrate and 0-10 μM compound in buffer containing 50 mM HEPES pH7.0, 0.02% NaN3, 0.01% BSA, 0.1 mM Orthovanadate, 50 mM MgCl2, 1 mM DTT and 0.005% Tween-20. The kinase was incubated with compound for 60 minutes at room temperature and the reaction was initiated by the addition of ATP and Rb (Ser780)-biotin substrate. After reaction at room temperature for 90 minutes, an equal volume of stop/detection solution was added according to the manufacture's instruction (Cisbio Bioassays). The stop/detection solution contained Streptavidin-XL665 and Anti-pRb (Ser780) mAb-Eu Cryptate in Detection buffer (Cisbio Bioassays). Plates were incubated at room temperature for 60 minutes, and the TR-FRET signals (ex337 nm, em665 nm/620 nm) were recorded on a PHERAstar FSX plate reader (BMG Labtech). The inhibition percentage of CDK2/Cyclin E1 or CDK1/Cyclin B1 kinase activity in presence of increasing concentrations of compounds was calculated based on the ratio of fluorescence at 665 nm to that at 620 nm. The IC50 for each compound was derived from fitting the data to the four-parameter logistic equation by Dotmatics.

[2] = biological target: CDK1/Cyclin B1 (Homo sapiens, UniProt P06493); test: CDK1/Cyclin B1 Biochemical Assay (TR-FRET), 1 mM ATP; conditions: 0.15 μM Rb (Ser780)-biotin substrate, pH7.0, 60 min preincubation, 90 min reaction, room temperature
Procedure: as §1, §2

Sequence of CDK1/Cyclin B1 (P06493 whole entry): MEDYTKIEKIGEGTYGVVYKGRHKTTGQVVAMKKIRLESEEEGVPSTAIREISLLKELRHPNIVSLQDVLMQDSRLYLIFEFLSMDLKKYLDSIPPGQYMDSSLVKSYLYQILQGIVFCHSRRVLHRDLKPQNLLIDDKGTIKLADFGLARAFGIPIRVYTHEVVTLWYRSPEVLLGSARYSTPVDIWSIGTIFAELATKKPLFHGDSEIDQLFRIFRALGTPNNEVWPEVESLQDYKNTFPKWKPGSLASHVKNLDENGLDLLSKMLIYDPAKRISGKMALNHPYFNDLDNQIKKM
Sequence of CDK1/Cyclin B1 (P14635 whole entry partner): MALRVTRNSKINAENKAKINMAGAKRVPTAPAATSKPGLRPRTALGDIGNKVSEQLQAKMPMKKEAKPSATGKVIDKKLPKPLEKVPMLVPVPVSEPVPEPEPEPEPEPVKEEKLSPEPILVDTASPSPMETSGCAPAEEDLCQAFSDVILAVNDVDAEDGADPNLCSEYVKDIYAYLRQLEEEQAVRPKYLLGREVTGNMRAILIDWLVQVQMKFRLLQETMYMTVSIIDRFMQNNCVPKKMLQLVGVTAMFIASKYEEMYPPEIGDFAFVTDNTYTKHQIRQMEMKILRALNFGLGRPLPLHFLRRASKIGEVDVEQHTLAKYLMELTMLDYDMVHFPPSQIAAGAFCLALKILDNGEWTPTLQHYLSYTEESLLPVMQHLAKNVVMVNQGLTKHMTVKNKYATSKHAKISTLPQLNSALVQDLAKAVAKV

Row | SMILES | IC50 [1] | IC50 [2]
1 | O=C(N[C@@H]1C[C@H]1O)O[C@H]1CC[C@@H](c2cc(Nc3ccc4c(c3F)CNS4(=O)=O)n[nH]2)C1 (relative stereo) [Example 442, cis-3-(3-((4-fluoro-1,1-dioxido-2,3-dihydrobenzo[d]isothiazol-5-yl)amino)-1H-pyrazol-5-yl)cyclopentyl((1R,2R)-2-hydroxycyclopropyl)carbamate] | 55 nM | 2990 nM
2 | CC1(NC(=O)O[C@H]2CC[C@@H](c3cc(Nc4cc5c(cc4F)S(=O)(=O)NC5)n[nH]3)C2)CCC1 (relative stereo) [Example 445, cis-3-(3-((6-fluoro-1,1-dioxido-2,3-dihydrobenzo[d]isothiazol-5-yl)amino)-1H-pyrazol-5-yl)cyclopentyl(1-methylcyclobutyl)carbamate] | 1.8 nM | 1050 nM
3 | CC1(NC(=O)O[C@H]2CC[C@@H](c3cc(Nc4cc5c(cc4F)S(=O)(=O)NC5)n[nH]3)C2)CCCC1 (relative stereo) [Example 446, cis-3-(3-((6-fluoro-1,1-dioxido-2,3-dihydrobenzo[d]isothiazol-5-yl)amino)-1H-pyrazol-5-yl)cyclopentyl(1-methylcyclopentyl)carbamate] | 1.7 nM | 1400 nM
4 | CC1(NC(=O)O[C@H]2CC[C@@H](c3cc(Nc4cc5c(cc4F)S(=O)(=O)NC5)n[nH]3)C2)CCOC1 (relative stereo) [Example 450, cis-3-(3-((6-fluoro-1,1-dioxido-2,3-dihydrobenzo[d]isothiazol-5-yl)amino)-1H-pyrazol-5-yl)cyclopentyl(3-methyltetrahydrofuran-3-yl)carbamate] | 7.6 nM | 6180 nM
5 | CC1(NC(=O)O[C@H]2CC[C@@H](c3cc(Nc4cc5c(cc4F)S(=O)(=O)NC5)n[nH]3)C2)COC1 (relative stereo) [Example 451, cis-3-(3-((6-fluoro-1,1-dioxido-2,3-dihydrobenzo[d]isothiazol-5-yl)amino)-1H-pyrazol-5-yl)cyclopentyl(3-methyloxetan-3-yl)carbamate] | 9.9 nM | 7050 nM
6 | CN1c2ccc(Nc3cc([C@@H]4CC[C@H](OC(=O)NC56CC(C5)C6)C4)[nH]n3)c(F)c2CS1(=O)=O (relative stereo) [Example 452, cis-3-(3-((4-fluoro-1-methyl-2,2-dioxido-1,3-dihydrobenzo[c]isothiazol-5-yl)amino)-1H-pyrazol-5-yl)cyclopentyl bicyclo[1.1.1]pentan-1-ylcarbamate] | 0.5 nM | 487 nM
7 | [2H]C([2H])([2H])N1c2ccc(Nc3cc([C@@H]4CC[C@H](OC(=O)NC(C)(C)C)C4)[nH]n3)cc2CS1(=O)=O (relative stereo) [Example 454, cis-3-(3-((1-(methyl-d3)-2,2-dioxido-1,3-dihydrobenzo[c]isothiazol-5-yl)amino)-1H-pyrazol-5-yl)cyclopentyl tert-butylcarbamate] | 0.5 nM | 114 nM
8 | [2H]C([2H])([2H])N1c2ccc(Nc3cc([C@@H]4CC[C@H](OC(=O)NC56CC(C5)C6)C4)[nH]n3)cc2CS1(=O)=O (relative stereo) [Example 455, cis-3-(3-((1-(methyl-d3)-2,2-dioxido-1,3-dihydrobenzo[c]isothiazol-5-yl)amino)-1H-pyrazol-5-yl)cyclopentyl bicyclo[1.1.1]pentan-1-ylcarbamate] | 0.9 nM | 97 nM
9 | O=C(NC12CCC(O)(CC1)CC2)O[C@H]1CC[C@@H](c2cc(Nc3cc4c(cc3F)S(=O)(=O)NC4)n[nH]2)C1 (relative stereo) [Example 457, cis-3-(3-((6-fluoro-1,1-dioxido-2,3-dihydrobenzo[d]isothiazol-5-yl)amino)-1H-pyrazol-5-yl)cyclopentyl(4-hydroxybicyclo[2.2.2]octan-1-yl)carbamate] | 1.8 nM | 1110 nM
10 | CC(C)NC(=O)O[C@H]1CC[C@@H](c2cc(Nc3ccc4c(c3F)N(C)S(=O)(=O)N4C)n[nH]2)C1 (relative stereo) [Example 458, cis-3-(3-((4-fluoro-1,3-dimethyl-2,2-dioxido-1,3-dihydrobenzo[c][1,2,5]thiadiazol-5-yl)amino)-1H-pyrazol-5-yl)cyclopentyl isopropylcarbamate] | 12 nM | 3500 nM
11 | O=C(NC1CC1)O[C@H]1CC[C@@H](c2cc(Nc3ccc4c(c3F)CS(=O)(=O)N4)n[nH]2)C1 (relative stereo) [Example 459, cis-3-(3-((4-fluoro-2,2-dioxido-1,3-dihydrobenzo[c]isothiazol-5-yl)amino)-1H-pyrazol-5-yl)cyclopentyl cyclopropylcarbamate] | 6 nM | 1970 nM
12 | CCCNC(=O)O[C@H]1CC[C@@H](c2cc(Nc3ccc4c(c3F)CCS(=O)(=O)N4)n[nH]2)C1 (relative stereo) [Example 460, cis-3-(3-((5-fluoro-2,2-dioxido-3,4-dihydro-1H-benzo[c][1,2]thiazin-6-yl)amino)-1H-pyrazol-5-yl)cyclopentyl propylcarbamate] | 3.1 nM | 593 nM

More lines, in order of falling IC50 [1], values ahead:

Row | IC50 [1] | IC50 [2] | SMILES
13 | 47 nM | 5060 nM | CN(C(=O)O[C@H]1CC[C@@H](c2cc(Nc3ccc4c(c3F)CS(=O)(=O)N4)n[nH]2)C1)C1CCOC1 (relative stereo) [Example 441, cis-3-(3-((4-fluoro-2,2-dioxido-1,3-dihydrobenzo[c]isothiazol-5-yl)amino)-1H-pyrazol-5-yl)cyclopentyl methyl(tetrahydrofuran-3-yl)carbamate]
14 | 16 nM | 7870 nM | CC(C)(CO)NC(=O)O[C@H]1CC[C@@H](c2cc(Nc3cc4c(cc3F)S(=O)(=O)NC4)n[nH]2)C1 (relative stereo) [Example 444, cis-3-(3-((6-fluoro-1,1-dioxido-2,3-dihydrobenzo[d]isothiazol-5-yl)amino)-1H-pyrazol-5-yl)cyclopentyl(1-hydroxy-2-methylpropan-2-yl)carbamate]
15 | 4.8 nM | 1280 nM | CC1(C)CCCN1C(=O)O[C@H]1CC[C@@H](c2cc(Nc3cc4c(cc3F)S(=O)(=O)NC4)n[nH]2)C1 (relative stereo) [Example 447, cis-3-(3-((6-fluoro-1,1-dioxido-2,3-dihydrobenzo[d]isothiazol-5-yl)amino)-1H-pyrazol-5-yl)cyclopentyl 2,2-dimethylpyrrolidine-1-carboxylate]
16 | 4.1 nM | 1190 nM | CC1(C)CCN1C(=O)O[C@H]1CC[C@@H](c2cc(Nc3cc4c(cc3F)S(=O)(=O)NC4)n[nH]2)C1 (relative stereo) [Example 449, cis-3-(3-((6-fluoro-1,1-dioxido-2,3-dihydrobenzo[d]isothiazol-5-yl)amino)-1H-pyrazol-5-yl)cyclopentyl 2,2-dimethylazetidine-1-carboxylate]
17 | 1.6 nM | 582 nM | CC(C)(CO)NC(=O)O[C@H]1CC[C@@H](c2cc(Nc3ccc4c(c3F)CS(=O)(=O)N4)n[nH]2)C1 (relative stereo) [Example 443, cis-3-(3-((4-fluoro-2,2-dioxido-1,3-dihydrobenzo[c]isothiazol-5-yl)amino)-1H-pyrazol-5-yl)cyclopentyl(1-hydroxy-2-methylpropan-2-yl)carbamate]
18 | 1.1 nM | 65 nM | O=C(NC12CC(C1)C2)O[C@H]1CC[C@@H](c2cc(Nc3ccc4c(c3F)CS(=O)(=O)N4)n[nH]2)C1 (relative stereo) [Example 448, cis-3-(3-((4-fluoro-2,2-dioxido-1,3-dihydrobenzo[c]isothiazol-5-yl)amino)-1H-pyrazol-5-yl)cyclopentyl bicyclo[1.1.1]pentan-1-ylcarbamate]
19 | 0.9 nM | 446 nM | CN1c2ccc(Nc3cc([C@@H]4CC[C@H](OC(=O)NC(C)(C)C)C4)[nH]n3)c(F)c2CS1(=O)=O (relative stereo) [Example 453, cis-3-(3-((4-fluoro-1-methyl-2,2-dioxido-1,3-dihydrobenzo[c]isothiazol-5-yl)amino)-1H-pyrazol-5-yl)cyclopentyl tert-butylcarbamate]
20 | 0.5 nM | 550 nM | O=C(NC12CC(O)(C1)C2)O[C@H]1CC[C@@H](c2cc(Nc3cc4c(cc3F)S(=O)(=O)NC4)n[nH]2)C1 (relative stereo) [Example 456, cis-3-(3-((6-fluoro-1,1-dioxido-2,3-dihydrobenzo[d]isothiazol-5-yl)amino)-1H-pyrazol-5-yl)cyclopentyl(3-hydroxybicyclo[1.1.1]pentan-1-yl)carbamate]
21 | 0.3 nM | 271 nM | CC[C@H](C)NC(=O)O[C@H]1CC[C@@H](c2cc(Nc3ccc4c(c3F)CCS(=O)(=O)N4)n[nH]2)C1 (relative stereo) [Example 461, cis-3-(3-((5-fluoro-2,2-dioxido-3,4-dihydro-1H-benzo[c][1,2]thiazin-6-yl)amino)-1H-pyrazol-5-yl)cyclopentyl((S)-sec-butyl)carbamate]
